Test results taken from patent publication EP0297159A1, “[N-Acyl, 1,7-Di-Aline] calcitonins, method for their preparation, pharmaceutical compositions and use” (Armour Pharmaceutical Company, priority 1987, dated 1989).
Where a SMILES comes first, the peptide text is derived from it. The star is where a group is joined. Propionyl = CCC(=O)*

Test system: serum calcium concentration
Conditions: rat, in vivo, sc
Experimental: Rats were divided into four groups of seven animals, and each group was assigned at random to a dose of standard or test solution. Low and high doses were chosen from the linear portion of the dose-response curve. For the salmon calcitonin standard, the values were 0.7 and 2.1 mcg. peptide/100 g. body weight (BW). This dose approximates 3 and 9 MU/100 g. BW. Peptides were given by subcutaneous injection (0.2 ml./100 g. BW) and blood was withdrawn 1 hour later for serum calcium determination. Sera are processed and analyzed within two hours of collection.

CCC(=O)N[C@@H](C)C(=O)N[C@@H](CO)C(=O)N[C@@H](CC(N)=O)C(=O)N[C@@H](CC(C)C)C(=O)N[C@@H](CO)C(=O)N[C@H](C(=O)N[C@@H](C)C(=O)N[C@H](C(=O)N[C@@H](CC(C)C)C(=O)NCC(=O)N[C@@H](CCCCN)C(=O)N[C@@H](CC(C)C)C(=O)N[C@@H](CO)C(=O)N[C@@H](CCC(N)=O)C(=O)N[C@@H](CCC(=O)O)C(=O)N[C@@H](CC(C)C)C(=O)N[C@@H](Cc1c[nH]cn1)C(=O)N[C@@H](CCCCN)C(=O)N[C@@H](CC(C)C)C(=O)N[C@@H](CCC(N)=O)C(=O)N[C@H](C(=O)N[C@@H](Cc1ccc(O)cc1)C(=O)N1CCC[C@H]1C(=O)N[C@@H](CCCNC(=N)N)C(=O)N[C@H](C(=O)N[C@@H](CC(N)=O)C(=O)N[C@H](C(=O)NCC(=O)N[C@@H](CO)C(=O)NCC(=O)N[C@H](C(=O)N1CCC[C@H]1C(N)=O)[C@@H](C)O)[C@@H](C)O)[C@@H](C)O)[C@@H](C)O)C(C)C)[C@@H](C)O [[N^α-Propionyl-Di-Ala^1,7]SCT, [N^α-Propionyl, 1,7-Di-Alanine]salmon calcitonin] (Propionyl-ASNLSTAVLGKLSQELHKLQTYPRTNTGSGTP-NH2)
biological potency: 5450 IU/mg
